Reference: US4562275A, “Antitumor platinum complexes” (priority 1984, dated 1985)
“And” between values parts separate entries of the source, which are not always exact repeats. Equal values may be shown once.

What was measured:
[1] = system: BDF1 mice; experiment: Single-dose ip LD50 in BDF1 mice; format: in vivo, mouse; conditions: 30 days observation
Procedure: Single-dose ip LD50 values were determined in BDF1 mice for the indicated complexes.

[2] = system: BDF1 mice; experiment: Nephrotoxicity: effect on blood urea nitrogen (BUN) in BDF1 mice
[3] = system: L1210 leukemia; experiment: Antitumor activity vs transplantable L1210 leukemia (ip) in mice; format: in vivo, mouse; conditions: for Max % T/C: dying mice only
[4] = system: B16 melanoma; experiment: Antitumor activity vs ip B16 melanoma in mice; format: in vivo, mouse; parameters: O.D.: unit not given here
[5] = Solubility (Table 3); conditions: medium not given
[6] = system: L1210/CDDP (cisplatin resistant line of L1210 leukemia); experiment: Antitumor activity vs cisplatin-resistant L1210 leukemia (L1210/CDDP) in mice; format: in vivo, mouse
[7] = system: BDF1 mice; experiment: Deaths (D.14) in the BUN test in BDF1 mice; format: in vivo, mouse
Excerpt: The toxicity studies were done in male BDF1 mice (25-29 gm) and castrated male Fitch ferrets (1-1.5 kg).
Groups of 40-50 mice/experiment were bled from the retro-orbital plexus and individual BUN values determined by a modified urease method using a Centrifichem System 400. The test complex, or saline for controls, was given at several dose levels (5-10 mice/dose) in single ip injections. The highest dose of the complex usually corresponded to its LD50 value or 1.5 times its optimal single dose in the L1210 experiment. At least two lower doses were included to evaluate dose-related effects. The BUN values were measured 4 and 7 days after dosing. BUN values ≥30 mg% were considered indicative of drug-induced nephrotoxicity.

[8] = system: M109 carcinoma; experiment: Antitumor activity vs ip M109 (Madison 109 lung) carcinoma in mice; format: in vivo, mouse; parameters: O.D.: unit not given here
[9] = system: C26 carcinoma; experiment: Antitumor activity vs ip C26 (colon 26) carcinoma in mice; format: in vivo, mouse; parameters: O.D.: unit not given here
[10] = Solubility stated in the preparation examples

Substance: hydroxymethylphosphonato trans(-)-1,2-diaminocyclohexane platinum(II) [Example 12]
- LD50 [1]: 79 mg/kg/ip
- Incidence of BUN > 30 mg % ([2]; 44 mg/kg ip): 1/6
- Incidence of BUN > 30 mg % ([2]; 59 mg/kg ip): 0/4
- BUN↑, Mouse ([2]; effect relative to cisplatin): 0
- O.D. (optimal dose) ([3]; L1210, QD 1 → 5, ip): 3 mg/kg/inj
- Max % T/C ([3]; L1210, QD 1 → 5, ip): 293%
- Max % T/C ([3]; L1210, single dose Day 1, ip, (a), (b) determinations): 221% and 275%
- O.D. (optimal dose) ([3]; L1210, single dose Day 1, ip, dose giving the Max % T/C, same order): 24 mg/kg/inj and 21 mg/kg/inj
- OD (optimum dose) ([3]; optimum dose from the L1210 test): 24 mg/kg/ip
- O.D. ([4]; ip B16 (3×; 9×)): 4
- Max. % T/C ([4]; ip B16 (3×; 9×): q4d × 3 or qd 1-9, ip, dying mice only): 229%
- Ratio of Max. % T/C Complex/cDDP ([4]; ip B16, relative to concomitant cisplatin): 1.08
- Solubility [5]: 3000 µg/mL
- Cures/total ([6]; Day 1): 2/6
- O.D. (optimal dose) ([6]; Day 1): 14 mg/kg/inj
- Max % T/C ([6]; Day 1, dying mice only): 340%
- Deaths D.14 ([7]; 44 mg/kg ip): 6/10
- Deaths D.14 ([7]; 59 mg/kg ip): 9/10
- Deaths D.14 ([7]; 79 mg/kg ip): 10/10
- O.D. ([8]; ip M109 (2×; 4×)): 18
- Max. % T/C ([8]; ip M109 (2×; 4×): q3d × 2 or qd 1-4, ip, dying mice only): 135%
- Ratio of Max. % T/C Complex/cDDP ([8]; ip M109, relative to concomitant cisplatin): .95
- O.D. ([9]; ip C26 (2×; 4×)): 24
- Max. % T/C ([9]; ip C26 (2×; 4×): q3d × 2 or qd 1-4, ip, dying mice only): 125%
- Ratio of Max. % T/C Complex/cDDP ([9]; ip C26, relative to concomitant cisplatin): .87
- Solubility in methanol ([10]; methanol): soluble
- Solubility in water ([10]; water): soluble
